# In US20080009470A1, “Acremonic Acid Derivatives” (priority 2003, published 2008):
# Values joined by “and” are separate entries in the source; they are usually repeats but may differ in a detail not shown here. Equal entries are not always repeated.
# Key:
# [1] = tested on: Moraxella catarrhalis isolates; experiment: MIC, Agar Dilution / Micro Dilution Test (NCCLS); assay type: cell-based; conditions: n=2
# Source text: (§1) E.g., the compounds of the present invention show antimicrobial, e.g. antibacterial activity against gram positive bacteria and gram negative, such as Staphylococcus, e.g. S. aureus, MRSA (Methicillin Resistant S. aureus), MSSA (Methicillin Sensitive S. aureus), Enterococcus, e.g. E. faecalis, E. faecium, Moraxella, e.g. M. catarrhalis, in vitro in the Agar Dilution Test and/or Micro Dilution Test for bacteria according to National Committee for Clinical Laboratory Standards (NCCLS) 1993, • Document M7-A4, Vol. 20, No. 2, 2000: “Methods for dilution Antimicrobial Susceptibility Tests for Bacteria that Grow Aerobically”—Third Edition, Approved Standard”; and • Document M26-A, Vo. 19, No. 18, 1999: Methods for determining antibactericidal activity of antimicrobial agents, • Document M11-A3 for anaerobic bacteria, • in a concentration from about 0.1 to ca. 25.6 μg/ml, e.g. using strains including Staphylococcus aureus (ATCC 29213 and ATCC 29506); Enterococcus faecalis ATCC 29212; • and in vivo in the septicaemia mouse model, in accordance to the method description Nr. 159 A-5, approved by Austrian Health Authorities (MA 58, no. 2968/95 of Oct. 12, 1995), e.g. when administered at dosages from 0.05 to 50 mg/kg body weight.
# (§2) Furthermore, the compound of example 1 is active against mupirocin-resistant staphylococci (n=26) with MICs below 0.5 μg/ml (range ≦0.125-0.5 μg/ml). Moraxella catarrhalis isolates (n=2) are inhibited at MICs of 0.2 and 0.4 μg/ml. The MICs for Enterococcus faecalis isolates (n=2) are 6.4 μg/ml and 12.8 μg/ml.
# [2] = tested on: methicillin-sensitive Staphylococcus aureus (MSSA) strains; experiment: MIC, Agar Dilution / Micro Dilution Test (NCCLS); assay type: cell-based; conditions: n=26, e.g. in the form of its sodium salt
# Source text: as §1, §2
# [3] = tested on: mupirocin-resistant staphylococci; experiment: MIC, Agar Dilution / Micro Dilution Test (NCCLS); assay type: cell-based; conditions: n=26
# Source text: as §1, §2
# [4] = tested on: Enterococcus faecalis isolates; experiment: MIC, Agar Dilution / Micro Dilution Test (NCCLS); assay type: cell-based; conditions: n=2
# Source text: as §1, §2
# [5] = tested on: Enterococcus faecium; experiment: MIC, Agar Dilution / Micro Dilution Test (NCCLS); assay type: cell-based; conditions: n=1
# Source text: as §1, §2
# [6] = tested on: S. aureus B29 (clinical isolate, MRSA); experiment: septicaemia mouse model; assay type: in vivo; conditions: mice, survival on day 5, Probit analysis, e.g. sodium salt
# Source text: as §1
# (§3) The ED50 values are calculated by Probit analysis of the administered dosages of compounds. Activity is determined by numbers of surviving animals per group of 8 or 6 mice, respectively, per dosage unit on day 5 after infection.
# [7] = tested on: Staphylococcus aureus (ATCC 49951, MSSA); experiment: septicaemia mouse model; assay type: in vivo; conditions: mice, treated orally 1 and 4 hours after infection; survival on day 5; Probit analysis; e.g. sodium salt; ranging from 5.54 to 13.34
# Source text: as §1, §3
# [8] = tested on: methicillin-resistant S. aureus (MRSA) strains; experiment: MIC, Agar Dilution / Micro Dilution Test (NCCLS); assay type: cell-based, Staphylococcus aureus; conditions: e.g. in the form of its sodium salt
# Source text: E.g., the compounds of the present invention show antimicrobial, e.g. antibacterial activity against gram positive bacteria and gram negative, such as Staphylococcus, e.g. S. aureus, MRSA (Methicillin Resistant S. aureus), MSSA (Methicillin Sensitive S. aureus), Enterococcus, e.g. E. faecalis, E. faecium, Moraxella, e.g. M. catarrhalis, in vitro in the Agar Dilution Test and/or Micro Dilution Test for bacteria according to National Committee for Clinical Laboratory Standards (NCCLS) 1993, • Document M7-A4, Vol. 20, No. 2, 2000: “Methods for dilution Antimicrobial Susceptibility Tests for Bacteria that Grow Aerobically”—Third Edition, Approved Standard”; and • Document M26-A, Vo. 19, No. 18, 1999: Methods for determining antibactericidal activity of antimicrobial agents, • Document M11-A3 for anaerobic bacteria, • in a concentration from about 0.1 to ca. 25.6 μg/ml, e.g. using strains including Staphylococcus aureus (ATCC 29213 and ATCC 29506); Enterococcus faecalis ATCC 29212; • and in vivo in the septicaemia mouse model, in accordance to the method description Nr. […]
# The compound of example 1 is a preferred compound of the present invention. It has, for example been determined that the minimum inhibitory concentration, e.g. MIC90 (μg/ml), of the compound of Example 1, e.g. in the form of its sodium salt, against, for example S. aureus (MRSA) is of about 0.2.
substance,measurement,setting,value
"6-O-(2′-fluoroisobutyryl)-24, 25-dihydro-acremonic acid [Example 1]",MICs,[1],0.2 µg/mL and 0.4 µg/mL
same,MIC90,[2],0.25 µg/mL
same,MIC range,[3],0.125 to 0.5 µg/mL
same,MICs,[3],below 0.5 μg/ml
same,MICs,[4],6.4 µg/mL and 12.8 µg/mL
same,MIC,[5],6.4 µg/mL
same,ED50,"[6]; treated orally 1 and 4 hours after infection, ranging from 4.25 to 11.98",ca. 6.65 mg/kg body weight
same,ED50,"[6]; treated subcutaneously 1 and 4 hours after infection, ranging from 1.93 to 5.85",ca. 3.20 mg/kg body weight
same,ED50,[7],ca. 8.55 mg/kg body weight
same,MIC50,"[8]; MRSA strains, n=26",0.2 µg/mL
same,MIC90,[8]; S. aureus (MRSA),about 0.2 μg/ml
